Measured values: publication PMC11247503 (Journal of Medicinal Chemistry, 2024)
“Also recorded” adds a separate entry of the source. Counter-ions that a name gives are not always drawn. Like-named read-outs stand apart in the source and are kept apart here.

Key:
mouse Spns2 [1] = molecular target: T1, mouse Spns2 (Mus musculus, UniProt Q91VM4); test: HeLa cell S1P release assay (Spns2 inhibition); type: cell-based; conditions: for inhibition at 1 µM: HeLa, read-out: %Inhib. (Spns2 inhibition, percent decrease in S1P secretion relative to control); for inhibition at 1 µM / %Inhib. (Spns2 inhibition, percent decrease in S1P secretion relative to control): 1 μM inhibitor, HeLa cells, S1P in media by LC-MS/MS; for %Inhib. (Spns2 inhibition, percent decrease in S1P secretion relative to control): 1 µM
T1 construct: expressed in transfected cells; host or cells: HeLa cells (G418-resistant pools)
T1 sequence (Q91VM4 1-549): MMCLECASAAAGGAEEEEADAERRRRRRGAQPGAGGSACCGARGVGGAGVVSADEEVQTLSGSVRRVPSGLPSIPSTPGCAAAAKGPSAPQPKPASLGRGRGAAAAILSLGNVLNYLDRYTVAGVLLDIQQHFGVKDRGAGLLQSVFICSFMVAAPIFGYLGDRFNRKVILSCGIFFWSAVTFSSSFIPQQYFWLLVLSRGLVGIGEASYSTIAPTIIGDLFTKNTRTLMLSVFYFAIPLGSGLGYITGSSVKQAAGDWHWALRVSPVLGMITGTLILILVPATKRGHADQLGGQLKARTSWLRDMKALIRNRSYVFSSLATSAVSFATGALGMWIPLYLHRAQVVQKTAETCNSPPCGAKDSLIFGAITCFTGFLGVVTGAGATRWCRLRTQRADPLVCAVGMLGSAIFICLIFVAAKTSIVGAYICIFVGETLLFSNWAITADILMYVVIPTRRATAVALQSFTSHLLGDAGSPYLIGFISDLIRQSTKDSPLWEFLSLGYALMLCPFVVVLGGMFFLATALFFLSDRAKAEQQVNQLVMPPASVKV
Description: With a library of analogs of SLB1122168 containing phenylurea, phenylcarbamate, and benzamide as bioisostere of the benzoxazole, we investigated their potential in inhibiting S1P transport using a HeLa cell assay.[36]−[38],[43] Briefly, in this assay, Spns2 is overexpressed whereas the S1P-degrading enzymes (lyase or phosphatases) were blocked with inhibitors.[44],[45] Inhibition of S1P transport is determined by measuring the amount of S1P in the buffer using LC-MS.
This assay was conducted as reported by Kharel et al.[43] Briefly, compounds were assessed in a HeLa cell assay at a 1 μM test concentration, unless noted otherwise. HeLa cells were transfected with a pcDNA3.1 plasmid encoding mouse Spns2, and pools of cells resistant to G418 were selected. S1P catabolic pathways were suppressed by the addition of 4-deoxypyridoxine (1 mM), NaF (2 mM), and Na3VO4 (0.2 mM). After growing cells to near confluence on 12-well tissue culture dishes, growth media was removed, inhibitors were introduced in release media (serum free medium containing 0.2% fatty acid free BSA), and the cells were incubated for 16–18 h at 37 °C. The BSA with bound S1P was concentrated from the release media by TFA-driven precipitation after addition of the d7-S1P internal standard, the S1P extracted from the protein pellet, and quantified by LC-MS/MS. Lower levels of S1P release into the media indicated greater degrees of Spns2 inhibition. Inhibition is reported as the percent decrease in S1P release relative to the control where no inhibitor was introduced.

[2] = Compound concentrations in plasma of mice after oral dose; type: in vivo, mice (C57BL/6j)
Description: We next investigated the potential oral bioavailability of 11i (SLF80821178), which will be a significant advantage over SLB1122168. […] Thus, mice were administered a single 10 mg/kg oral dose of 11i, and compound levels in plasma were quantified.
Figure 7 Compound concentrations in plasma of mice treated with 11i. Three C57BL/6j strain female mice (8–10 weeks old) were treated with a single 10 mg/kg dose of 11i administered PO. Blood samples were collected, and plasma 11i levels were quantified via LC-MS/MS.
Compounds that performed well in the HeLa cell assay were subsequently administered to mice (C57BL/6j strain). Inhibitor (10 mg/kg) or an equivalent dose of vehicle (36.1% PEG400/9.1% ethanol/4.6% solutol/50% H2O) was administered to animals via an intraperitoneal injection or oral gavage. After 6 to 16 h, blood samples were collected. Lymphocyte counts were obtained from 20 μL of mouse blood using a Heska HT5 Element blood analyzer. Plasma S1P concentrations were determined using LC-MS/MS. All animal protocols were approved prior to experimentation by the University of Virginia School of Medicine’s Animal Care and Use Committee.

circulating lymphocytes = test: Circulating lymphocyte counts in mice; type: in vivo, mice (C57BL/6j)
Description: (§1) To determine the effect of 11iin vivo, mice were treated with 3, 10, and 30 mg/kg intraperitoneally, and the amount of circulating lymphocytes was quantified. A hallmark of Spns2 inhibition is the decrease in lymphocytes counts, which is a pharmacodynamic marker of target engagement.[54],[55] […] To determine whether blood S1P levels were affected, plasma S1P concentrations were measured via LC-MS. […] The extent by which Spns2 inhibition by knockout or a pharmacological inhibitor affects the S1P level remains unclear. A range of changes from no significant difference[30]−[32] to 45% reduction in plasma S1P levels compared to wild type littermates have been reported.[9],[24],[28],[33]
(§2) Figure 8 Biological evaluation of 11i in five C57BL/6j strain female mice (8–10 weeks old). […] Blood was drawn 4 h postdose. (B) Plasma S1P concentrations in mice treated with 11i are shown relative to vehicle 6 h following IP administration at 3 mg/kg, 10 mg/kg, and 30 mg/kg. […] Blood was drawn 4 h postdose. (D) Plasma S1P concentrations in mice treated with 11i are shown relative to vehicle 4 h post oral administration at 10 mg/kg, 30 mg/kg, and 100 mg/kg. […]
(§3) Compounds that performed well in the HeLa cell assay were subsequently administered to mice (C57BL/6j strain). […] Plasma S1P concentrations were determined using LC-MS/MS. […]

plasma S1P = test: Plasma S1P concentrations in mice; type: in vivo, mice (C57BL/6j)
Description: as §1, §2, §3

[3] = parameters: method as in PMID 37010497; conditions: cited from earlier work
mice = system: mice; parameters: method as in PMID 35609189; conditions: dose 30 mg/kg; cited from earlier work
kidney fibrosis = system: kidney fibrosis; parameters: method as in PMID 35976996; conditions: unilateral ischemia-reperfusion injury; cited from earlier work
mouse Spns2 [4] = molecular target: T1, mouse Spns2; conditions: read-out: IC50 (Spns2 inhibition); cited from earlier work

For CCCCCCCCCCc1ccc(NC(=O)N2CCNCC2)cc1.Cl [11i, N-(4-Decylphenyl)piperazine-1-carboxamide Hydrochloride], which inhibition at 1 µM (mouse Spns2 [1]) is on record?
The inhibition at 1 µM was at least 80%.

And the IC50 (mouse Spns2 [1]; dose-response 1 nM to 10 μM, HeLa cells transfected with Spns2, read-out: IC50, inhibition of S1P release from HeLa cells)?
The IC50 was 0.051 ± 0.003 µM.

What about the oral bioavailability ([2]; 10 mg/kg PO) of the same molecule?
The oral bioavailability was “orally bioavailable”.

What about the Tmax ([2]; female, C57BL/6j, mouse, single 10 mg/kg PO, plasma, read-out: tmax (time of maximum circulating level)) of the same molecule?
The Tmax was 4 h.

What about the “compound exposure at tmax (maximum plasma concentration)” value ([2]; single 10 mg/kg PO, plasma) of the same molecule?
Its value is 1.2 µM.

What about the “time circulating levels remained elevated above 0.5 μM” value ([2]; single 10 mg/kg PO, plasma) of the same molecule?
The value was “more than 8 h”.

And the “decrease in lymphocyte count, maximum level” value (circulating lymphocytes; IP 3, 10 and 30 mg/kg, blood 4 h postdose)?
The value was 50%.

What about the “reduction in circulating lymphocyte counts” value (circulating lymphocytes; route not stated at this place (abstract)) of the same molecule?
Its value is about 50%.

What about the “change in plasma S1P levels” value (plasma S1P; IP 3, 10 and 30 mg/kg, 6 h) of the same molecule?
The value was “no change”.

And the “change in plasma S1P levels” value (plasma S1P; PO 10, 30 and 100 mg/kg, 4 h)?
The value was “no change”.

For CCCCCCCCCCc1ccc(C(=O)N[C@H]2CCNC2)cc1.Cl [(S)-4d, (S)-4-Decyl-N-(pyrrolidin-3-yl)benzamide Hydrochloride], which “%Inhib. (Spns2 inhibition, percent decrease in S1P secretion relative to control)” value (mouse Spns2 [1]) is on record?
The value was 61 ± 5%.

What about the inhibition at 1 µM (mouse Spns2 [1]) of the same molecule?
Its inhibition at 1 µM is 61 to 66%.

Which inhibition at 1 µM (mouse Spns2 [1]) does the source give for CCCCCCCCCCc1ccc(C(=O)N[C@H]2CCCNC2)cc1 [(S)-4f, (S)-4-Decyl-N-(piperidin-3-yl)benzamide Hydrochloride] here?
Its inhibition at 1 µM is 20 ± 3%.

With CCCCCCCCCCc1ccc(C(=O)N2CCN[C@@H](C)C2)cc1.Cl [(S)-4i, (S)-(4-Decylphenyl)(3-methylpiperazin-1-yl)methanone Hydrochloride] as the molecule, how does the “%Inhib. (Spns2 inhibition, percent decrease in S1P secretion relative to control)” value (mouse Spns2 [1]) read?
The value was 44 ± 1%.

And the “%Inhib. (Spns2 inhibition, percent decrease in S1P secretion relative to control)” value (mouse Spns2 [1]; listed as 4i)?
The value was 68%.

Which inhibition at 1 µM (mouse Spns2 [1]) does the source give for CCCCCCCCCCc1ccc(NC(=O)O[C@H]2CCNC2)cc1 [(S)-8c, (S)-Pyrrolidin-3-yl (4-Decylphenyl)carbamate Hydrochloride] here?
The inhibition at 1 µM was 46%.

Which inhibition at 1 µM (mouse Spns2 [1]) does the source give for CCCCCCCCCCc1ccc(NC(=O)O[C@H]2CCCNC2)cc1 [(S)-8e, (S)-Piperidin-3-yl (4-Decylphenyl)carbamate Hydrochloride] here?
Its inhibition at 1 µM is 48 ± 2%.

Which inhibition at 1 µM (mouse Spns2 [1]) does the source give for CCCCCCCCCCc1ccc(NC(=O)N[C@H]2CCNC2)cc1 [(S)-11d, (S)-1-(4-Decylphenyl)-3-(pyrrolidin-3-yl)urea Hydrochloride] here?
The inhibition at 1 µM was 44 ± 2%.

Which inhibition at 1 µM (mouse Spns2 [1]) does the source give for CCCCCCCCCCc1ccc(NC(=O)N[C@H]2CCCNC2)cc1 [(S)-11f, (S)-1-(4-Decylphenyl)-3-(piperidin-3-yl)urea Hydrochloride] here?
The inhibition at 1 µM was 78 ± 4%.

For CCCCCCCCCCc1ccc2nc(NC[C@H]3CCNC3)oc2c1.Cl [SLB1122168], which inhibition at 1 µM (mouse Spns2 [1]) is on record?
Its inhibition at 1 µM is 85 ± 2%.

What about the oral bioavailability [3] of the same molecule?
Its oral bioavailability is “not orally bioavailable; also recorded: poor oral bioavailability”.

Which results are given for CCCCCCCCCCc1ccc(-c2noc(CCCN)n2)cc1.Cl [SLF1081851]?
inhibition at 1 µM (mouse Spns2 [1]): 44 ± 5%; toxicity to mice (mice): toxic; effect on kidney fibrosis (kidney fibrosis): ameliorated kidney fibrosis

Which IC50 (mouse Spns2 [4]) does the source give for CCCCCCCCCCc1ccc(-c2cn(CC)c(CCCN)n2)cc1 [SLF80721166] here?
Its IC50 is 1.4 ± 0.3 µM.
